For 3 compounds, Km results are on record in article PMC6128262 (Analytical chemistry, 2018).

What is called Km is the substrate concentration at which the rate is half of its maximum.

One data set relates to HpMTAN. The following applies: read-out: Km value for AdoHcy (HpMTAN); previously measured; cited from earlier work.
In data set [1] the test system is N[C@@H](Cc1c[nH]cn1)C(=O)O. The data set can be described thus: purified protein, by the assay type. The conditions noted are these: pH 8.0; 25.0 °C.
The next data set concerns CIAP. The conditions noted are these: read-out: Km value of ATP for CIAP; molybdenum blue based assay; cited from earlier work.

For `Nc1ncnc2c1ncn2[C@@H]1O[C@H](CSCC[C@H](N)C(=O)O)[C@@H](O)[C@H]1O` [AdoHcy, S-adenosylhomocysteine], the Km in the data set with HpMTAN is 5 µM. For the compound EgtD (Mycobacterium tuberculosis H37Rv), in data set [1], the Km is 330 ± 35 µM. Take `Nc1ncnc2c1ncn2[C@@H]1O[C@H](COP(=O)(O)OP(=O)(O)OP(=O)(O)O)[C@@H](O)[C@H]1O` [ATP]: the Km with CIAP is 20.5 µM.
